According to patent publication US20250082720A1, “NEW PEPTIDE AND USES THEREOF” (Neo Cremar Co., Ltd., priority 2021, published 2025):

What was measured:
C2C12 cells [1] = experiment: Expression of myodifferentiation-related factors (real-time PCR, Western blot, immunocytochemistry); assay type: cell-based, mouse
Description: (§1) After adding 1 ml of TRIzol™ reagent, the cells were crushed using a sonicator. After centrifugation of the crushed sample (12,000 rpm, 10 min, 4° C.), the supernatant was transferred to a new tube, added with 200 μl of chloroform, and left at room temperature for 10 minutes. After 10 minutes, centrifugation (12,000 rpm, 10 min, 4° C.) was performed, yielded a transparent supernatant. Next, 500 μl of isopropanol was added, the mixture was left for 10 minutes, and centrifugation was performed to obtain RNA pellets. After washing by adding 70% ethanol (distilled water treated with ethanol+diethylpyrocarbonate (hereinafter referred to as DEPC)) to the RNA pellets, complete removal and drying were followed. The dried transparent RNA was added with DEPC-treated distilled water and then stored at −80° C. Total RNA volume was measured by nanodrop, and the 18s and 28s bands were detected in 1.2% agarose gel. cDNA was synthesized with 2 μg of total RNA, random hexamer primers, and reverse transcriptase (25° C.: 10 min, 37° C.: 120 min, 85° C.: 5 min).
Real-time PCR (RT-PCR) was performed for detecting gene expression. For observation of real-time gene expression, gene expression was analyzed using the Power SYBR Green PCR Master Mix, which includes fluorescent materials of SYBR green (7500 Real-time PCR system). The PCR primer was designed with Primer 3 software (http://frodo.wi.mit.edu) according to the nucleotide sequence secured from NCBI GenBank. PCR was performed 40 times at 95° C. for 10 minutes, again at 95° C. for 33 seconds, at gene primer temperature (tm) for 33 seconds, and at 72° C. for 33 seconds. Gene expression values were analyzed through the analysis of c(t) values obtained through real-time PCR analysis (fold change 2-ΔΔCt formula). Setting the gene expression value of the untreated cells to 1, the gene expression value of the treated cells was calculated. In the analysis of gene c(t) values, normalization was conducted with the glyceraldehyde-3-phosphate dehydrogenase (GAPDH).
The medium of cultured C2C12 cells was removed and washed once with PBS. The washed cells were treated with 4% formaldehyde (Sigma), fixed for 15 minutes, then washed using PBS, added with 0.2% trypton X-100 (Sigma), and left for 5 minutes. After washing again using PBS, adding 1% normal goat serum, and leaving for 30 minutes, the primary antibody (MYOD, myogenin (MYOG): myosin light chain (MYL2); 1:50) was added to carry out a reaction at 4° C. for 14 hours. The antibodies were removed, washing was performed 3 times with PBS for 10 minutes, and then the cells were left with secondary antibody (Alexa Fluor 488 goat anti-Mouse & rabbit SFX kit t) for 1 hour. After 1 hour, the antibodies were removed, washing was performed with PBS for 10 minutes, the nuclei were stained with 4′,6-diamidino-2-phenylindol (DAPI), and the expression of the proteins was observed using fluorescence microscopy.
(1) The medium of cultured C2C12 cells was removed, followed by washing with PBS. After adding LIPA buffer and protease inhibitor to the washed cells, the proteins included in the supernatant were collected after centrifugation for 10 minutes at 12000 rpm. 40 μg of the extracted proteins were subjected to electrophoresis in 8 to 10% acrylamide gel and then transferred to a polyvinylidene fluoride (PVDF) membrane (Milipore). These were blocked with 3% skim milk or bovine serum albumin (BSA) at room temperature for 1 hour. Afterwards, primary antibody diluted in 1% skim milk or BSA (Pax7; 1:500, MYOD; 1:500, MYOG; 1:400, MYL2; 1:1000, MYH; 1:500, MSTN; 1:1000, β-actin; 1:1000, MuRF1; 1:400, and Atrogin; 1:1:400) was added and reacted at 4° C. for over 16 hours. After 16 hours, cells were washed three times with TBST (Tris-buffered saline with Tween 20) and reacted with secondary antibody with horseradish peroxidase (HRP) conjugated at room temperature for 1 hour. […]

C2C12 cells [2] = experiment: C2C12 myoblast proliferation (MTT method); assay type: cell-based, mouse; conditions: for increase in cell proliferation compared to cells without peptide treatment: C2C12, peptide 1000 nM, 1 day, MTT, FIG. 4
Description: C2C12 cells, a mouse myoblast line, were cultured in Dulbecco's Modified Eagle's Medium (DMEM)+10% fetal bovine serum (FBS)+1% penicillin/streptomycin (P/S). To validate the effect of MIF peptide, C2C12 cells (2×10^3 cells/ml) were placed in a 12 well cell culture dish and attached for 24 hours, and MIF2 or Ac-MIF2-NH2 peptide (1000 nM) was treated for 1 day to observe cell proliferation by MTT method. The medium was replaced every 2 days, and the cells were cultured at 37° C.
(§2) To validate cell proliferation, the culture medium of the cells was removed, the cells were washed with DMEM, 500 μl of MTT reagent (0.5 mg/ml) dissolved in phosphate buffered saline (PBS) was added to each well, and the cells were left at 37° C. for 1 hour. The reaction solution was removed, and 1000 μl of DMSO was added to each well. Purple formazan crystals were completely dissolved in DMSO, and the absorbance was measured at 540 nm.

3T3L1 cells [3] = experiment: Expression of FMOD, MSTN and lipogenesis-related factors in 3T3L1 cells (real-time PCR, Western blot); assay type: cell-based, mouse; conditions: 3T3L1, compared to untreated cells, FIG. 13C
Description: as §1, with “After washing by adding 70% ethanol (distilled water treated with ethanol+diethylpyrocarbonate (hereinafter referred to as DEPC)) to the RNA pellets, complete removal and drying were followed. The dried transparent RNA was added with DEPC-treated distilled water and then stored at −80° C.” left out
Real-time PCR (RT-PCR) was performed for detecting gene expression. For observation of real-time gene expression, gene expression was analyzed using the Power SYBR Green PCR Master Mix, which includes fluorescent materials of SYBR green (7500 Real-time PCR system). […] Gene expression values were analyzed through the analysis of c(t) values obtained through real-time PCR analysis (fold change 2-ΔΔCt formula). Setting the gene expression value of the untreated cells to 1, the gene expression value of the treated cells was calculated. […]

C2C12 cells [4] = experiment: Myodifferentiation: root canal formation and fusion index (Giemsa staining); assay type: cell-based, mouse; conditions: for increase in fusion index compared to untreated cells: C2C12, differentiation medium with peptide; for root canal formation compared to untreated cells: C2C12, differentiation medium
Description: When C2C12 cells were 70% grown, media were replaced with myodifferentiation medium added with MSTN protein (1 ng), Ac-MIF2-NH2 (1000 nM), and Ac-MIF2-NH2 (1000 nM)+MSTN protein (1 ng) from proliferation medium, followed by culture for 3 days.
When the cells grew more than 70% for differentiation of myoblasts into myocytes, they were cultured for 3 days by replacing with a differentiation medium (DMEM+2% FBS+1% P/S). The medium was replaced once daily, and the cells were cultured at 37° C.
The cell medium was removed, and the cells were washed with PBS. After washing, a methanol: PBS reagent in a 1:1 volume ratio was treated, followed by fixation for 2 minutes. Additionally, after a methanol: PBS reagent in a 2:1 volume ratio was added, fixation was followed for additional 2 minutes. After 2 minutes, 0.04% Giemsa reagent was added, and then the cells were left for 30 minutes, washed with PBS after 30 minutes, and observed under a microscope, with 3 photographs taken for each cell (300×). In the photographs taken, the number of fused nuclei in the root canal cells was counted, the number of nuclei of total cells was counted, and the number of fused nuclei was divided by the number of nuclei of the total cells to obtain the % value.

[5] = test system: gastrocnemius muscle of C57BL/6 mice; experiment: Myoregeneration after Ac-MIF2-NH2 injection and cardiotoxin (CTX) muscle injury; assay type: in vivo, mouse
Text: The male C57BL/6 mice were purchased from Dae Han Bio Link Co., Ltd., four of which per cage were kept in a temperature-controlled room with a 12-hour light cycle. The animals were fed with a standard rodent diet containing 4.0% (wt/wt) total fat (Rodent NIH-31 Open Formula Auto; Zeigler Bros., Inc., Gardners, PA, USA) and water. All experiments involving animals complied with the guidelines (YUMC-AEC2015-006) issued by the Animal Control Committee of Youngnam University's Animal Research Institute. The MSTN knock-out mouse was provided by a laboratory at Seoul National University. Normal, MSTN+/−(heterozygous), and MSTN−/−(homozygous) adipose tissues were fixed by collecting from 6-week-old mice and stored at −80° C. until required for analysis.
Muscle tissues containing paraffin was subjected to deparaffinization with xylene and ethanol and hydration, respectively, and the tissue was soaked in 0.3% hydrogen peroxide water (H2O2)/methanol for 15 minutes to stop endogenous peroxidase activity. Then, tissues were stained with hematoxylin/eosin for morphological observation or reacted with 1% normal goat serum at room temperature for 1 hour to block a reaction with non-specific antibodies, followed by a reaction with the primary antibody (1:50) at 4° C. for over 16 hours. After 16 hours, washing was performed 3 times with PBS, followed by a reaction with secondary antibody (1:100) with HRP conjugated at room temperature for 1 hour. Horse radish peroxidase-conjugated streptavidin was added to detect the expression of the protein, followed by observation under a microscope.
In order to observe the myoregeneration effect following MIF peptide injection, mice were injected with Ac-MIF2-NH2 peptide and injected/uninjected with cardiotoxin (hereinafter referred to as CTX) into the muscle, followed by observation of the morphology and regeneration of the muscle. A day after C57BL/6 mice were injected with Ac-MIF2-NH2 peptide (1.125 mM), […] cardiotoxin was injected into the gastrocnemius. Muscle tissues were sampled 7 days after CTX injection.
Paraffin-embedded muscle sections were deparaffinized using xylene, rehydrated using a concentration gradient of ethanol, stained with hematoxylin and eosin, observed under an optical microscope, magnified at 400× scale, and photographed, followed by measurement of the diameter of muscle fibers using Image J software.

3T3L1 cells [6] = experiment: 3T3L1 cell proliferation (MTT method); assay type: cell-based, mouse; conditions: 3T3L1, peptide 1000 nM, 2 days, FIG. 13A
Description: 3T3L1 cells, mouse fibroblasts, were cultured in Dulbecco's Modified Eagle's Medium (DMEM)+10% fetal bovine serum (FBS)+1% penicillin/streptomycin (P/S). To validate the effect of MIF peptide, 3T3L1 cells (2×10^3 cells/ml) were placed in a 12-well cell culture dish, attached for 24 hours, and treated with MIF peptide (1000 nM) for 2 days, followed by observation of cell proliferation by MTT method. The medium was replaced once every 2 days, and the cells were cultured at 37° C.
as §2

C2C12 cells [7] = experiment: Scratch experiment, degree of cell recovery; assay type: cell-based, mouse; conditions: C2C12 100% grown, 1000 nM peptide, 1 day
Description: When the C2C12 cells were 100% grown, cells were scratches on the surface, treated with 1000 nM MIF2 or Ac-MIF2-NH2 peptides, and cultured for 1 day, followed by observation for a degree of cell recovery.

3T3L1 cells [8] = experiment: Adipodifferentiation of 3T3L1 cells (Oil Red O staining); assay type: cell-based, mouse; conditions: 3T3L1, adipocyte differentiation medium, 4 days, FIG. 13B
Description: For differentiation of 3T3L1 cells into adipocytes, when the cells grew about 100% or more, they were replaced with differentiation medium (DMEM+10% FBS+1% P/S+10 μg/ml insulin+1 μM dexametazone+0.5 μM IBMX (3-isobutyl-1-methylxanthine)) and cultured for 2 days. After 2 days, MIF peptide was treated in a medium including 10 μg/ml insulin to induce cell differentiation.
3T3L1 cells were treated with peptides and differentiated for 4 days, then the medium was removed, and the cells were washed with normal saline, treated with 10% formaldehyde, and left for 10 minutes. After 10 minutes, Oil-red O staining agents (6 ([…] Oil-red O reagent+1 ml 100% isopropanol): 4 (distilled water)) were treated and left for 1 hour. After 1 hour, cells were washed with normal saline and then observed under a microscope. To measure the Oil-red O stained in the intracellularly differentiated cells, 100% isopropanol was added and collected, followed by measurement at 510 nm.

[9] = C2C12 differentiation, versus control
[10] = C2C12 myodifferentiation, FIG. 8
[11] = injected muscle, 7 days after CTX, FIG. 10B
[12] = C2C12 myodifferentiation, FIG. 6

## Ac-VDFEAGDWFW-NH2 [Ac-MIF2-NH2, MIF2 peptide with acetylated N-terminus and amidated C-terminus]
C2C12 cells [1]; [9]
  MSTN protein expression: reduced
  mRNA and protein expression of MYOD, MYOG, MYL2, and MYH: increased
C2C12 cells [1]; [10]
  ACVRIIB protein expression: reduced
  gene expression of Atrogin1 and MuRF1: reduced
C2C12 cells [2]
  increase in cell proliferation compared to cells without peptide treatment: 33%
3T3L1 cells [3]
  expression of FMOD; MSTN; and lipogenesis-related mRNAs and proteins (CD36, CD163, and PPARγ): decreased
C2C12 cells [4]; 3 days
  increase in fusion index compared to untreated cells: 14%
  root canal formation compared to untreated cells: increased
C2C12 cells [4]; C2C12, myodifferentiation medium, 3 days, FIG. 9
  fusion index compared to untreated cells: increased
[5]; 7 days after CTX injection
  muscle weight compared to muscle without injection: no significant difference
[5]; 7 days after CTX, FIG. 10C
  diameter of the muscle fibers compared to muscles without injection: increased
[5]; CTX + Ac-MIF2-NH2, 7 days after CTX injection
  muscle weight: 0.147 ± 0.163 g
[5]; injected muscle, 7 days after CTX, FIG. 10A
  mRNA expression of Pax7, MYOD, MYOG, MYL2, and MYH in muscle: significantly increased
[5]; [11]
  MSTN protein expression in muscle: decreased
  protein expression of Pax7, MYOD, MYOG, MYL2, and MYH in muscle: increased
3T3L1 cells [6]
  decrease in proliferation compared to cells without peptide treatment: 10%
C2C12 cells [7]
  increase in scratch recovery degree compared to untreated cells: 26%
3T3L1 cells [8]
  decrease in fat accumulation (Oil-red O intensity) compared to cells without peptide treatment: 9%

## MSTN protein: myostatin protein that inhibits the proliferation and differentiation of myoblasts [reference compound]
C2C12 cells [2]; C2C12, MSTN protein in proliferation medium, FIG. 3
  proliferation of cells compared to untreated cells: reduced
C2C12 cells [4]; C2C12, MSTN protein in differentiation medium, FIG. 3
  differentiation of cells compared to untreated cells: reduced
C2C12 cells [4]; 3 days
  root canal formation compared to untreated cells: reduced

## VDFEAGDWFW [MIF2]
C2C12 cells [1]; [9]
  expression of MSTN mRNA and proteins: did not show any significant differences
  mRNA and protein expression of MYOD, MYOG, MYL2, and MYH: increased
C2C12 cells [1]; [12]
  expression of ACVRIIB mRNA: decreased
  expression of MuRF1 and ACVRIIB proteins: decreased
C2C12 cells [2]
  increase in cell proliferation compared to cells without peptide treatment: 6%
C2C12 cells [4]; 3 days
  increase in fusion index compared to untreated cells: 12%
C2C12 cells [7]
  increase in scratch recovery degree compared to untreated cells: 22%
